Key:
male Wistar rats [1] = assay: Glucose tolerance test in rats after single plant extracts (Example 1); type: in vivo, rat
Method: An experiment was conducted on 96 male Wistar rats with mean body weight of 381.2±16.6 g, bred at […] in Olsztyn. Each study group consisted of 12 rats. The animals were kept in individual cages in a ventilated room at a constant temperature of about 22° C., controlled relative humidity of about 60% and appropriate lighting (day/night, 12/12 hours). During the experimental period, the animals were fed a standard laboratory rodent mix. Rats were deprived of food 12 hours prior to the first measurement of blood glucose levels, while constant access to water was maintained. On the day of the experiment, the rats were weighed and fasting blood glucose measurements were taken, via a scalpel incision at the tip of the tail. Next, the animals received aqueous solutions of plant extracts, Acarbose, which served as a positive control (PC) or water, which served as a negative control (NC) at pre-defined quantities via a gastric tube. All the plant extracts were provided by […] Investment in a solution form, and were administered according to the following doses: • white mulberry extract (mulberry): 120 mg per 1 kg body weight • bean extract: 100 mg per 1 kg body weight • green coffee extract (coffee): 20 mg per 1 kg body weight • bitter melon extract (melon): 150 mg per 1 kg body weight • pomelo extract: 100 mg per 1 kg body weight • acarbose preparation: 35 mg per 1 kg body weight • arabinose preparation: 25 mg per 1 kg body weight The extract solutions were prepared so as the amount of liquid administered to a sample animal weighing 350 g was 1 mL. Water was administered to the control group in the same manner/volume. […] Statistical analysis using Student's t-test was performed for proper interpretation of results. Each result obtained for a particular product was compared to the analogous result obtained in the negative control (water) group.

male Wistar rats [2] = assay: Glucose tolerance test (sucrose or starch) in rats after plant extract combinations I-III (Example 2); type: in vivo, rat
Method: Each study group consisted of 10 rats. Rats were kept in individual cages in a ventilated at a constant temperature of about 22° C., controlled relative humidity of about 60% and appropriate lighting (day/night, 12/12 hours). During the experimental period, rats were fed the standard laboratory rodent mix. Rats were deprived of food 12 hours prior to the first measurement of blood glucose levels, while constant access to water was maintained. On the day of the experiment, rats were weighed and fasting blood glucose measurements were taken, via a scalpel incision at the tip of the tail. Next, rats were administered water (negative control), acarbose (positive control) or aqueous solutions of pre-defined combinations of plant extracts, as follows: • acarbose preparation: 35 mg per 1 kg body weight • combination I: white mulberry extract (120 mg per 1 kg body weight)+ bean extract (100 mg per 1 kg body weight)+ green coffee extract (20 mg per 1 kg body weight). • combination II: white mulberry extract (120 mg per 1 kg body weight)+ green coffee extract (20 mg per 1 kg body weight)+ arabinose preparation (25 mg per 1 kg body weight). • combination III: white mulberry extract (120 mg per 1 kg body weight)+ bean extract (100 mg per 1 kg body weight)+ green coffee extract (20 mg per 1 kg body weight)+ arabinose preparation (25 mg per 1 kg body weight). The solutions of the extracts were prepared so that the volume of liquid administered to an animal weighing 350 g was 1 mL. Water was administered to the control group in a similar manner. […] Statistical analysis using Student's t-test was performed for proper interpretation of results. Each result obtained for a particular product was compared to the analogous result obtained in the negative control (water) group. Results are presented in Table 2, below and in FIGS. 5A-5B.

[3] = GLUCOSE load (50% glucose solution), 0 min (fasting)
[4] = STARCH load (40% starch solution), 0 min (fasting)
[5] = SUCROSE load (50% sucrose solution), 0 min (fasting)

| Structure (SMILES) | blood glucose level (male Wistar rats [1]; [3]) [mg/dL] | blood glucose level (male Wistar rats [1]; GLUCOSE load, 15 min) [mg/dL] | blood glucose level (male Wistar rats [1]; GLUCOSE load, 30 min) [mg/dL] | blood glucose level (male Wistar rats [1]; GLUCOSE load, 60 min) [mg/dL] | blood glucose level (male Wistar rats [1]; GLUCOSE load, 90 min) [mg/dL] | blood glucose level (male Wistar rats [1]; GLUCOSE load, 120 min) [mg/dL] | blood glucose level (male Wistar rats [1]; GLUCOSE load, 180 min) [mg/dL] | blood glucose level (male Wistar rats [1]; [4]) [mg/dL] | blood glucose level (male Wistar rats [1]; STARCH load, 15 min) [mg/dL] | blood glucose level (male Wistar rats [1]; STARCH load, 30 min) [mg/dL] | blood glucose level (male Wistar rats [1]; STARCH load, 60 min) [mg/dL] | blood glucose level (male Wistar rats [1]; STARCH load, 90 min) [mg/dL] | blood glucose level (male Wistar rats [1]; STARCH load, 120 min) [mg/dL] | blood glucose level (male Wistar rats [1]; STARCH load, 180 min) [mg/dL] | blood glucose level (male Wistar rats [1]; [5]) [mg/dL] | blood glucose level (male Wistar rats [1]; SUCROSE load, 15 min) [mg/dL] | blood glucose level (male Wistar rats [1]; SUCROSE load, 30 min) [mg/dL] | blood glucose level (male Wistar rats [1]; SUCROSE load, 60 min) [mg/dL] | blood glucose level (male Wistar rats [1]; SUCROSE load, 90 min) [mg/dL] | blood glucose level (male Wistar rats [1]; SUCROSE load, 120 min) [mg/dL] | other results |
| --- | --- | --- | --- | --- | --- | --- | --- | --- | --- | --- | --- | --- | --- | --- | --- | --- | --- | --- | --- | --- | --- |
| O=C[C@H](O)[C@@H](O)[C@@H](O)CO [Arabinose, L-Arabinose] | 96.0 ± 3.62 | 170.9 ± 19.55 | 157.1 ± 20.27 | 148.2 ± 18.33 | 152.2 ± 11.19 | 137.0 ± 8.96 | 111.6 ± 14.42 | 90.9 ± 5.92 | 116.3 ± 8.88 | 123.5 ± 12.49 | 110.9 ± 7.28 | 111.5 ± 4.19 | 106.3 ± 6.54 | 100.1 ± 6.33 | 94.7 ± 7.31 | 135.4 ± 14.68 | 132.9 ± 15.65 | 132.9 ± 9.06 | 131.7 ± 7.55 | 125.4 ± 6.52 | blood glucose level (male Wistar rats [1]; SUCROSE load, 180 min): 123.0 ± 7.25 mg/dL |
| C[C@H]1O[C@H](O[C@H]2[C@H](O)[C@@H](O)[C@@H](O[C@H]3[C@H](O)[C@@H](O)C(O)O[C@@H]3CO)O[C@@H]2CO)[C@H](O)[C@@H](O)[C@@H]1N[C@H]1C=C(CO)[C@@H](O)[C@H](O)[C@H]1O (some centres unmarked) [Acarbose] | 95.6 ± 6.37 | 168.9 ± 16.33 | 163.3 ± 22.35 | 158.0 ± 12.91 | 157.6 ± 10.20 | 137.7 ± 10.07 | 106.8 ± 8.59 | 93.5 ± 6.36 | 120.0 ± 14.97 | 114.9 ± 14.48 | 100.1 ± 7.28 | 95.5 ± 6.17 | 94.6 ± 6.02 | 90.0 ± 7.03 | 94.2 ± 7.43 | 120.0 ± 15.80 | 114.9 ± 14.48 | 100.1 ± 7.28 | 95.5 ± 6.17 | 94.6 ± 6.02 | blood glucose level (male Wistar rats [2]; STARCH 40% solution 2 g/kg, 0 min (fasting)): 89.7 ± 6.09 mg/dL; blood glucose level (male Wistar rats [2]; STARCH, 15 min): 105.5 ± 9.74 mg/dL; blood glucose level (male Wistar rats [2]; STARCH, 30 min): 104.6 ± 4.24 mg/dL; blood glucose level (male Wistar rats [2]; STARCH, 60 min): 97.3 ± 7.18 mg/dL; blood glucose level (male Wistar rats [2]; STARCH, 90 min): 98.3 ± 6.09 mg/dL; blood glucose level (male Wistar rats [2]; STARCH, 120 min): 94.8 ± 6.01 mg/dL; blood glucose level (male Wistar rats [2]; STARCH, 180 min): 88.7 ± 4.87 mg/dL; blood glucose level (male Wistar rats [2]; SUCROSE 50% solution 2 g/kg, 0 min (fasting)): 84.7 ± 4.81 mg/dL; blood glucose level (male Wistar rats [2]; SUCROSE, 15 min): 112.2 ± 8.58 mg/dL; blood glucose level (male Wistar rats [2]; SUCROSE, 30 min): 121.1 ± 8.93 mg/dL; blood glucose level (male Wistar rats [2]; SUCROSE, 60 min): 116.0 ± 6.87 mg/dL; blood glucose level (male Wistar rats [2]; SUCROSE, 90 min): 110.2 ± 6.51 mg/dL; blood glucose level (male Wistar rats [2]; SUCROSE, 120 min): 109.0 ± 4.66 mg/dL; blood glucose level (male Wistar rats [2]; SUCROSE, 180 min): 101.1 ± 5.34 mg/dL; blood glucose level (male Wistar rats [1]; SUCROSE load, 180 min): 90.0 ± 6.21 mg/dL |

From patent publication US11071767B2, “Dietary compositions for reducing blood glucose levels and for weight management” (MARMAR INVESTMENT SP. Z O.O., priority 2014, dated 2021)
